{"source": "patent US20020152479A1", "about": "“Car modulators: screening and treatment of hypercholesterolemia” (priority 2000, published 2002)", "molecules": {"B1": {"name": "rhodamine-ILRKLLQE (rhodamine-labeled peptide derived from the receptor binding domain of the coactivator SRC-1) (peptide)", "peptide": "rhodamine-ILRKLLQE", "modifications": "reading uncertain; also: printed as rhodamine-ILRKLLQE", "notes": "Labeled 8-mer used as the fluorescence polarization sensor; also called sensor peptide"}}, "key": {"[1]": {"target": "T1, GST-CARα ligand binding domain fusion protein (Homo sapiens, UniProt Q14994)", "T1 construct": "made in house; host or cells: E. coli", "T1 sequence (Q14994 76-348 isoform Q14994-2)": "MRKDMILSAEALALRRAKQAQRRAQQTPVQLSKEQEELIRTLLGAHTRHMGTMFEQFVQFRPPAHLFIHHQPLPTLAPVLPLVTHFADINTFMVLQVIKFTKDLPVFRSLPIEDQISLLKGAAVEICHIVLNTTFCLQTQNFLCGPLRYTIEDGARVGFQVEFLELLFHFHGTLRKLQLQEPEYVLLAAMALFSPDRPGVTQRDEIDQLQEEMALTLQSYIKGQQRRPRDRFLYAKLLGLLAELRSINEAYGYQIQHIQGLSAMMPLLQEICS", "assay": "Peptide sensor fluorescence polarization assay, GST-CARα ligand binding domain with rhodamine-[…] (SRC-1 peptide)", "protocol": "(§1) A portion of DNA encoding the ligand binding domain of CARα encoding amino acids 76 to 348 (GenBank Accession No. CAA83016) was subcloned into a glutathione S-transferase (GST) fusion protein expression vector (pGEX-2TK, Amersham-Pharmacia) to create a vector that encodes a fusion protein in which GST is fused to the amino terminus of the CAR ligand binding domain. The GST-CAR protein was expressed in E. coli and purified over a glutathione affinity column. The GST-CAR fusion protein was incubated with a rhodamine-labeled peptide derived from the receptor binding domain of the coactivator SRC-1, rhodamine-[…] (SEQ ID NO: 7) (see WO 99/27365). The fluorescence polarization was measured as described in WO 99/27365.\n(§2) Using the compounds set out in Table 1, a peptide sensor assay was carried out using the method of Example 3. Fusion proteins encoding the ligand binding domain of CARα (GST-CARα; see Example 3) and CARβ (GST-CARβ) were used in the assay. A portion of the DNA for the ligand binding domain of CARβ (GenBank Accession No. AF009327) encoding amino acids 86 to 358 was subcloned into a glutathione S-transferase (GST) fusion protein expression vector (pGEX-2TK, Amersham-Pharmacia) to create a vector that encodes a fusion protein in which GST is fused to the amino terminus of the CARβ ligand binding domain (GST-CARβ). The GST-CARβ was purified using glutathione affinity chromatography.\n(§3) The notation ND means not determined."}, "[2]": {"tested_on": "CAR", "assay": "RARE-luciferase reporter gene assay in CV-1 cells with increasing CAR expression plasmid (Example 4)", "format": "cell-based", "conditions": "10 μM compound, 24 h"}, "[3]": {"target": "T2, GST-CARβ ligand binding domain fusion protein (Mus musculus, UniProt O35627)", "T2 construct": "encoding amino acids 86 to 358 was subcloned; made in house", "T2 sequence (O35627 86-358)": "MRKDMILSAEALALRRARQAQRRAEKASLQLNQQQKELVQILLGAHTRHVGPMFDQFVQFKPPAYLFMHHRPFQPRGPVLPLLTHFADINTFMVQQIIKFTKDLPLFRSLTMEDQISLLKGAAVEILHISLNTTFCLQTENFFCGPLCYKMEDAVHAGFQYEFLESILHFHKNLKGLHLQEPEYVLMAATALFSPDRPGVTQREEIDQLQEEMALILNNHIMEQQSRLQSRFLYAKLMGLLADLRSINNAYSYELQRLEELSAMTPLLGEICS", "assay": "Peptide sensor fluorescence polarization assay, GST-CARβ ligand binding domain", "conditions": "half-maximal concentration of stimulation of peptide sensor assay signal", "protocol": "as §1, §2, §3"}, "[4]": {"target": "T3, CARα (Homo sapiens, UniProt Q14994)", "T3 construct": "expressed in transfected cells; host or cells: CV-1 cells", "T3 sequence (Q14994 1-348 isoform Q14994-2)": "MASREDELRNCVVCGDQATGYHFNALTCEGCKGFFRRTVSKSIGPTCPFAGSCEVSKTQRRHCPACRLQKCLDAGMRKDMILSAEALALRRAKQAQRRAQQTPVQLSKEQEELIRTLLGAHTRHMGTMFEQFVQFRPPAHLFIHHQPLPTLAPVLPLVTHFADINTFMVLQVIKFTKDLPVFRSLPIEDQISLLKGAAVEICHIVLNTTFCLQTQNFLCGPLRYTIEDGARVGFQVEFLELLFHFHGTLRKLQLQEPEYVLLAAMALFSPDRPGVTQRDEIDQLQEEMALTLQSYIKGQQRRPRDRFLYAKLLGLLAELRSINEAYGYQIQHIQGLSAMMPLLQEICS", "format": "cell-based"}, "[5]": {"target": "T4, CARβ (Mus musculus, UniProt O35627)", "T4 construct": "expressed in transfected cells; host or cells: CV-1 cells", "T4 sequence (O35627 1-358)": "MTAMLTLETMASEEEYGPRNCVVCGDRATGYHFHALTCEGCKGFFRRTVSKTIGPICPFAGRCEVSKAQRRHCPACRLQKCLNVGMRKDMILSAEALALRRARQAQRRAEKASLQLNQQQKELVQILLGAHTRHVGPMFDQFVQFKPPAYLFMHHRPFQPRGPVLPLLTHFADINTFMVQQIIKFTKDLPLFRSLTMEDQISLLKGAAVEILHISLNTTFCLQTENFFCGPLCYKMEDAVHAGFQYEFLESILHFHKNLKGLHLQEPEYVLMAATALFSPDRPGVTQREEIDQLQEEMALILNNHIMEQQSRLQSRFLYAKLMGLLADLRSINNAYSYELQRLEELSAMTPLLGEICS", "format": "cell-based"}, "[6]": {"assay": "Total plasma cholesterol after TCPOBOP in CAR wild-type, heterozygous and knockout mice", "format": "in vivo", "conditions": "single i.p. 3 mg/kg, four days after dosing"}, "[7]": {"assay": "Lipoprotein particle composition (LDL/VLDL) by electrophoresis of plasma, wild-type and CAR knockout mice", "format": "in vivo", "conditions": "single i.p. 3 mg/kg, four days after dosing"}, "[8]": {"assay": "Plasma cholesterol, HDL cholesterol and triglycerides in wild-type C57B1/6 mice", "format": "in vivo", "conditions": "single i.p. 3 mg/kg, four days after dosing"}, "[9]": {"target": "T5, mouse CAR (Mus musculus, UniProt O35627)", "T5 sequence (O35627 1-358)": "T4 sequence (O35627 1-358)", "conditions": "Tzameli et al. (2000); read-out: EC50, upregulation of CAR-mediated transcription; cited from earlier work"}, "[10]": {"tested_on": "CYP2B", "conditions": "mouse, in vivo, ip, cited from earlier work"}, "[11]": {"target": "GST-CARβ ligand binding domain fusion protein (mouse, UniProt P08515 1-218 = GST; O35627 86-358)", "assay": "fluorescence polarization peptide sensor assay, with small-molecule agonists"}, "[12]": {"conditions": "half-maximal concentration of stimulation of peptide sensor assay signal, read-out: GST-CARα EC50"}}, "note": "Read-outs that look alike come from different tables or passages of the source. Where no end group is shown, it is not given here. rhodamine = not defined here", "data": [{"molecule": "C[C@]12CC[C@@H](O)C[C@@H]1CC[C@@H]1[C@@H]2CC[C@]2(C)C=CC[C@@H]12", "note": "[5α-androst-16-en-3α-ol]", "values": [{"measurement": "IC50", "setting": "[1]; in the presence of 5 μM 5β-pregnan-3,20-dione, read-out: IC50, decrease of fluorescence polarization seen with 5β-pregnan-3,20-dione", "result": 530, "unit": "nM"}]}, {"molecule": "C[C@@]12CCC[C@H]1[C@@H]1CC[C@H]3C[C@H](O)CC[C@]3(C)[C@H]1CC2", "note": "[5α-androstane-3α-ol]", "values": [{"measurement": "Transcription of the luciferase reporter gene (normalized luciferase activity)", "setting": "[2]", "result": "decreased"}]}, {"molecule": "CC(=O)[C@H]1CC[C@H]2[C@@H]3CC[C@@H]4CC(=O)CC[C@]4(C)[C@H]3CC[C@]12C", "note": "[5β-pregnan-3,20-dione]", "values": [{"measurement": "EC50", "setting": "[1]", "result": 2500, "unit": "nM"}, {"measurement": "Fluorescence polarization between sensor peptide and GST-CAR", "setting": "[1]", "result": "increased"}, {"measurement": "Transcription of the luciferase reporter gene (normalized luciferase activity)", "setting": "[2]", "result": "increased transcription"}]}, {"molecule": "CCOC(=O)C(Nc1ccc(OCc2ccccc2)cc1)c1ccccc1", "note": "(centres unmarked) [Compound T0037566]", "values": [{"measurement": "EC50", "setting": "[1]; [12]", "result": 221, "unit": "nM"}, {"measurement": "EC50", "setting": "[3]", "result": 99.1, "unit": "nM"}, {"measurement": "CMV-CARα, fold increase in normalized luciferase activity over DMSO control", "setting": "[4]", "result": 1.96}, {"measurement": "CMV-CARβ, fold increase in normalized luciferase activity over DMSO control", "setting": "[5]", "result": 2.14}]}, {"molecule": "COc1ccc(C2CC(c3ccc(Cl)cc3)=NN2c2ccccc2Cl)c(OC)c1", "note": "(centres unmarked) [Compound T0318784]", "values": [{"measurement": "EC50", "setting": "[1]; [12]", "result": 91.2, "unit": "nM"}, {"measurement": "EC50", "setting": "[3]", "result": 96.7, "unit": "nM"}, {"measurement": "CMV-CARα, fold increase in normalized luciferase activity over DMSO control", "setting": "[4]", "result": 1.78}, {"measurement": "CMV-CARβ, fold increase in normalized luciferase activity over DMSO control", "setting": "[5]", "result": 3.87}]}, {"molecule": "Clc1ccc(CSCc2cc(Sc3c(Cl)cccc3Cl)nc(-c3ccccn3)n2)cc1", "note": "[Compound T0434523]", "values": [{"measurement": "EC50", "setting": "[1]; [12]", "result": 79.7, "unit": "nM"}, {"measurement": "EC50", "setting": "[3]", "result": 52.2, "unit": "nM"}, {"measurement": "CMV-CARα, fold increase in normalized luciferase activity over DMSO control", "setting": "[4]", "result": 2.17}, {"measurement": "CMV-CARβ, fold increase in normalized luciferase activity over DMSO control", "setting": "[5]", "result": 1.29}]}, {"molecule": "CCN(CC)c1ccc(C2C3=C(CC(C)(C)CC3=O)OC3=C2C(=O)CC(C)(C)C3)c(OCc2ccc(Cl)cc2Cl)c1", "note": "[Compound T0438248]", "values": [{"measurement": "EC50", "setting": "[1]; [12]", "result": 5.25, "unit": "nM"}, {"measurement": "EC50", "setting": "[3]", "result": 65.4, "unit": "nM"}, {"measurement": "CMV-CARα, fold increase in normalized luciferase activity over DMSO control", "setting": "[4]", "result": 2.92}, {"measurement": "CMV-CARβ, fold increase in normalized luciferase activity over DMSO control", "setting": "[5]", "result": 0.96}]}, {"molecule": "Clc1cnc(Oc2ccc(Oc3ncc(Cl)cc3Cl)cc2)c(Cl)c1", "note": "[TCPOBOP, 1,4-bis[2-(3,5-dichloropyridyloxy)]benzene]", "values": [{"measurement": "EC50", "setting": "[3]", "result": 60, "unit": "nM"}, {"measurement": "Plasma cholesterol levels, CAR knockout mice", "setting": "[6]", "result": "no effect"}, {"measurement": "Reduction in total cholesterol, female heterozygous CAR mice (+/−)", "setting": "[6]", "result": 60, "unit": "%"}, {"measurement": "Total plasma cholesterol, mice with one functional CAR gene (+/−)", "setting": "[6]", "result": "decreased total plasma cholesterol"}, {"measurement": "Total plasma cholesterol, wild-type littermates (+/+)", "setting": "[6]", "result": "decreased total plasma cholesterol"}, {"measurement": "Plasma levels of LDL/VLDL, CAR deficient (knockout) mice", "setting": "[7]", "result": "unaffected"}, {"measurement": "Plasma levels of LDL/VLDL, wild-type mice", "setting": "[7]", "result": "significant reduction"}, {"measurement": "Reduction in HDL", "setting": "[8]", "result": 40, "unit": "%"}, {"measurement": "Reduction in total plasma cholesterol", "setting": "[8]", "result": 40, "unit": "%"}, {"measurement": "Reduction in triglyceride levels", "setting": "[8]", "result": "15-30%"}, {"measurement": "EC50", "setting": "[9]", "result": 20, "unit": "nM"}, {"measurement": "Duration of CYP2B expression induction", "setting": "[10]; 3 mg/kg", "result": "over 20 weeks"}, {"measurement": "Dose inducing half maximal expression of CYP2B", "setting": "[10]", "result": 0.066, "unit": "mg/kg"}]}, {"molecule": "B1", "values": [{"measurement": "binding result", "setting": "[11]", "result": "binds"}]}]}
